Measured values taken from ChEMBL document CHEMBL1201862, “PubChem BioAssay data set” (2004).
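Where inhibition never reached the appropriate level, the endpoint shown equals the highest concentration tested. Otherwise, values were interpolated linearly from a five-concentration, 48-hour dose response in 96-well plates. Abbreviation: GI50, concentration required for 50% inhibition of growth.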 Activity calls are given as the source filed them. No stated cut-off is given here; in the data, active = GI50 up to about 1.1 µM and inactive = higher.

Tests used:
Experiment in all cases: DTP human tumour cell line panel, 48 h
K562 = test system: K562
HCT-116 = test system: HCT-116
NCI-H23 = test system: NCI-H23
LOX IMVI = test system: LOX IMVI
OVCAR-5 = test system: OVCAR-5
SF-268 = test system: SF-268
TK-10 = test system: TK-10
SNB-75 = test system: SNB-75
UACC-62 = test system: UACC-62
SR = test system: SR
CAKI-1 = test system: CAKI-1
A549 = test system: A549
OVCAR-4 = test system: OVCAR-4
MOLT-4 = test system: MOLT-4
OVCAR-3 = test system: OVCAR-3
M14 = test system: M14
SF-295 = test system: SF-295
EKVX = test system: EKVX

Compound	GI50 (K562)	GI50 (HCT-116)	GI50 (NCI-H23)	GI50 (LOX IMVI)	GI50 (OVCAR-5)	GI50 (SF-268)	GI50 (TK-10)	GI50 (SNB-75)	GI50 (UACC-62)	GI50 (SR)	GI50 (CAKI-1)	GI50 (A549)	GI50 (OVCAR-4)	GI50 (MOLT-4)	GI50 (OVCAR-3)	GI50 (M14)	GI50 (SF-295)	GI50 (EKVX)
C[C@]12CCCC(=O)C1(O)C[C@H](C(=O)O)CC2 (stereo partly drawn)	> 100 µM (inactive)	> 100 µM (inactive)	> 100 µM (inactive)	> 100 µM (inactive)	> 100 µM (inactive)	> 100 µM (inactive)	> 100 µM (inactive)	> 100 µM (inactive)	> 100 µM (inactive)	> 100 µM (inactive)	> 100 µM (inactive)	> 100 µM (inactive)	> 100 µM (inactive)	> 100 µM (inactive)	> 100 µM (inactive)	> 100 µM (inactive)	> 100 µM (inactive)	–
CC#CC1C2CCCC1(CSc1ccccc1)NC(=O)O2 (stereo not drawn)	> 100 µM (inactive)	> 100 µM (inactive)	> 100 µM (inactive)	–	> 100 µM (inactive)	> 100 µM (inactive)	> 100 µM (inactive)	> 100 µM (inactive)	> 100 µM (inactive)	> 100 µM (inactive)	> 100 µM (inactive)	> 100 µM (inactive)	> 100 µM (inactive)	30.3 µM (inactive)	> 100 µM (inactive)	> 100 µM (inactive)	> 100 µM (inactive)	> 100 µM (inactive)
CCCCC1CC(c2ccc(Cl)cc2)=NO1 (stereo not drawn)	> 100 µM (inactive)	> 100 µM (inactive)	> 100 µM (inactive)	–	> 100 µM (inactive)	> 100 µM (inactive)	> 100 µM (inactive)	> 100 µM (inactive)	> 100 µM (inactive)	> 100 µM (inactive)	> 100 µM (inactive)	> 100 µM (inactive)	> 100 µM (inactive)	> 100 µM (inactive)	> 100 µM (inactive)	> 100 µM (inactive)	> 100 µM (inactive)	> 100 µM (inactive)
Cc1ccc(NC(=O)CC2SC(Nc3cccc(Cl)c3C)=NC2=O)cc1 (stereo not drawn)	34.6 µM (inactive)	–	28.6 µM (inactive)	> 100 µM (inactive)	> 100 µM (inactive)	37 µM (inactive)	92 µM (inactive)	> 100 µM (inactive)	42 µM (inactive)	–	71.4 µM (inactive)	51.1 µM (inactive)	28.7 µM (inactive)	33 µM (inactive)	23 µM (inactive)	38.8 µM (inactive)	39.6 µM (inactive)	70 µM (inactive)
OC1(c2ccccc2)OC(C#Cc2ccccc2)(c2ccccc2)c2ccccc21 (stereo not drawn)	3.55 µM (inactive)	1.7 µM (inactive)	3.47 µM (inactive)	2.91 µM (inactive)	2.79 µM (inactive)	4.18 µM (inactive)	13.3 µM (inactive)	6.1 µM (inactive)	1.94 µM (inactive)	2.5 µM (inactive)	3.85 µM (inactive)	3.86 µM (inactive)	2.82 µM (inactive)	2.08 µM (inactive)	2.31 µM (inactive)	2.21 µM (inactive)	5.57 µM (inactive)	3.19 µM (inactive)
COc1ccc(OC)c(NC(=O)C(=O)NNC(=O)c2sc(NNC(C)=O)nc2C)c1	17.1 µM (inactive)	28.6 µM (inactive)	21.8 µM (inactive)	26.2 µM (inactive)	72.4 µM (inactive)	27.3 µM (inactive)	88.3 µM (inactive)	–	29.6 µM (inactive)	32.1 µM (inactive)	41.3 µM (inactive)	31.2 µM (inactive)	26.3 µM (inactive)	18.7 µM (inactive)	21.8 µM (inactive)	50.9 µM (inactive)	32 µM (inactive)	37.5 µM (inactive)
COc1cc(OC(=O)c2c(O)cc(O)c(O)c2C)cc(C)c1C(=O)Oc1cc(C)c(C(=O)O)c(O)c1	> 100 µM (inactive)	> 100 µM (inactive)	> 100 µM (inactive)	> 100 µM (inactive)	> 100 µM (inactive)	> 100 µM (inactive)	> 100 µM (inactive)	> 100 µM (inactive)	> 100 µM (inactive)	> 100 µM (inactive)	> 100 µM (inactive)	> 100 µM (inactive)	> 100 µM (inactive)	> 100 µM (inactive)	> 100 µM (inactive)	> 100 µM (inactive)	> 100 µM (inactive)	> 100 µM (inactive)
COc1ccc(CCc2cc(OC)c(O)c(OC)c2)cc1	33 µM (inactive)	59 µM (inactive)	37.2 µM (inactive)	–	44 µM (inactive)	73.5 µM (inactive)	–	29.4 µM (inactive)	69 µM (inactive)	37.3 µM (inactive)	42 µM (inactive)	47.1 µM (inactive)	81.5 µM (inactive)	35.7 µM (inactive)	79.4 µM (inactive)	77.3 µM (inactive)	–	> 100 µM (inactive)
CC1Nc2ccccc2NC1C=C(C#N)C#N (stereo not drawn)	8.32 µM (inactive)	13.5 µM (inactive)	17.2 µM (inactive)	11.3 µM (inactive)	18.9 µM (inactive)	14.7 µM (inactive)	19.6 µM (inactive)	14.6 µM (inactive)	16.1 µM (inactive)	5.61 µM (inactive)	14.1 µM (inactive)	22.8 µM (inactive)	15.9 µM (inactive)	5.96 µM (inactive)	15.8 µM (inactive)	11.9 µM (inactive)	15.5 µM (inactive)	19.5 µM (inactive)
Cc1ccccc1-n1c(C)nc2c1C(=O)c1ccccc1C2=O	37.7 µM (inactive)	35.1 µM (inactive)	35.4 µM (inactive)	–	72.3 µM (inactive)	67.5 µM (inactive)	> 100 µM (inactive)	–	47.1 µM (inactive)	38.9 µM (inactive)	42.7 µM (inactive)	54.6 µM (inactive)	27.5 µM (inactive)	32 µM (inactive)	24.8 µM (inactive)	42 µM (inactive)	67 µM (inactive)	> 100 µM (inactive)
c1cc2[se][se]c3c4cccc5[se][se]c(c(c1)c23)c54	> 100 µM (inactive)	> 100 µM (inactive)	> 100 µM (inactive)	> 100 µM (inactive)	> 100 µM (inactive)	> 100 µM (inactive)	> 100 µM (inactive)	> 100 µM (inactive)	> 100 µM (inactive)	> 100 µM (inactive)	> 100 µM (inactive)	> 100 µM (inactive)	> 100 µM (inactive)	> 100 µM (inactive)	> 100 µM (inactive)	> 100 µM (inactive)	> 100 µM (inactive)	–
COC(=O)C1Cc2c([nH]c3ccccc23)C(c2ccccc2O)N1Cc1ccccc1 (stereo not drawn)	37.5 µM (inactive)	23.3 µM (inactive)	44.3 µM (inactive)	44.9 µM (inactive)	> 46.5 µM (inactive)	26.4 µM (inactive)	34.3 µM (inactive)	7.05 µM (inactive)	25.4 µM (inactive)	28.4 µM (inactive)	22.2 µM (inactive)	32 µM (inactive)	24.4 µM (inactive)	42.1 µM (inactive)	27.7 µM (inactive)	38.4 µM (inactive)	21 µM (inactive)	> 31.6 µM (inactive)
O=c1c2ccccc2nc(-c2ccccc2)n1NC(=S)Nc1ccc(Cl)cc1[N+](=O)[O-]	50.9 µM (inactive)	54.2 µM (inactive)	> 100 µM (inactive)	56.8 µM (inactive)	> 100 µM (inactive)	> 100 µM (inactive)	> 100 µM (inactive)	29.2 µM (inactive)	39.7 µM (inactive)	33.3 µM (inactive)	> 100 µM (inactive)	67.3 µM (inactive)	88.5 µM (inactive)	73.3 µM (inactive)	–	> 100 µM (inactive)	92.3 µM (inactive)	–
COCCN1C2=CCCCC2=Nc2c(N)nc(N)nc21	> 100 µM (inactive)	> 100 µM (inactive)	> 100 µM (inactive)	> 100 µM (inactive)	> 100 µM (inactive)	> 100 µM (inactive)	> 100 µM (inactive)	> 100 µM (inactive)	> 100 µM (inactive)	> 100 µM (inactive)	> 100 µM (inactive)	> 100 µM (inactive)	–	> 100 µM (inactive)	38 µM (inactive)	> 100 µM (inactive)	> 100 µM (inactive)	–
COC(=O)C1=C(CO)C2C=CC1C2 (stereo not drawn)	> 100 µM (inactive)	> 100 µM (inactive)	> 100 µM (inactive)	> 100 µM (inactive)	> 100 µM (inactive)	> 100 µM (inactive)	> 100 µM (inactive)	> 100 µM (inactive)	> 100 µM (inactive)	–	> 100 µM (inactive)	> 100 µM (inactive)	> 100 µM (inactive)	> 100 µM (inactive)	> 100 µM (inactive)	> 100 µM (inactive)	> 100 µM (inactive)	> 100 µM (inactive)
CCOC(=O)c1c2cccccc2n2c(=O)cc(C)nc12	> 100 µM (inactive)	–	> 100 µM (inactive)	> 100 µM (inactive)	> 100 µM (inactive)	69.8 µM (inactive)	> 100 µM (inactive)	–	71.6 µM (inactive)	> 100 µM (inactive)	> 100 µM (inactive)	> 100 µM (inactive)	> 100 µM (inactive)	> 100 µM (inactive)	> 100 µM (inactive)	> 100 µM (inactive)	> 100 µM (inactive)	> 100 µM (inactive)
CSc1ccc(/C=C2/C[N+](C)(C)C/C(=C/c3ccc(SC)cc3)C2=O)cc1	5.47 µM (inactive)	–	> 10 µM (inactive)	–	23.4 µM (inactive)	10.5 µM (inactive)	50.7 µM (inactive)	6.52 µM (inactive)	0.168 µM (active)	8.57 µM (inactive)	–	21.9 µM (inactive)	–	5.31 µM (inactive)	15.9 µM (inactive)	13.5 µM (inactive)	27.2 µM (inactive)	19.1 µM (inactive)
